# Laboratory results reported in US20230263817A1, “HIGH DOSE NICOTINAMIDE ADENINE DINUCLEOTIDE (NAD) PRECURSOR REGIMENS FOR REDUCTION OF INFLAMMATION IN HUMAN PATIENTS WITH PREEXISTING INFLAMMATION” (University of Washington, priority 2021, published 2023).
# “Also recorded” adds a separate entry of the source.
# How the values were obtained:
# [1] = Randomized trial of NR in HFrEF: exploratory endpoints (6MWD, MLHFQ, echocardiography); assay type: in vivo, human; settings: Week 12 vs baseline; study not powered
# Description: Peripheral Blood Mononuclear Cell (PBMC) Mitochondrial Function. PBMCs were isolated from freshly-collected whole blood by centrifugation in Sepmate™-50 PBMC isolation tubes (STEMCELL Technologies, Vancouver, BC, Canada; Cat. 85450). Isolated PBMCs were resuspended in Seahorse XF® medium (Agilent, Cat. 102353-100) and then plated (10^6 cells/well) onto Seahorse® (Agilent) 24-well plates. PBMC mitochondrial respiratory function was assessed by measuring the oxygen consumption rate (OCR) at baseline and maximal stimulated conditions as described in Zhou B, et al. (J Clin Invest. 2020, 130:6054-6063 (Experimental Example 1)). Exploratory Endpoints. The following endpoints were considered exploratory, as the Study was underpowered to detect differences.
# Six minute walk distance (6MWD). Any potential “training” effect (Laboratories ATSCoPSfCPF. ATS statement: guidelines for the six-minute walk test. Am J Respir Crit Care Med. 2002, 166:111-7) for 6MWD results was mitigated by performing a “training” test at the Screening Visit, while the second test, performed at the Randomization Visit was considered the Baseline test.
# Echocardiography. Serial echocardiograms were performed using a standardized data collection protocol determined using the TOMTEC Arena Image-Com (TOMTEC Imaging Systems, Unterschleissheim, Germany). All echocardiograms were interpreted by a single observer, blinded to participant clinical data, randomized treatment assignment and echocardiogram temporal sequence. For evaluation of left ventricular systolic function by 2-dimensional (2-D), transthoracic echocardiography, 28 study pairs (NR=18, placebo=10) had evaluable data. For evaluation of left ventricular diastolic function by […] (E/e′), 24 study pairs (NR=17, placebo=7) had evaluable data.
# Minnesota Living with Heart Failure Questionnaire (MLHFQ). The MLHFQ was administered to Study participants at the Screening and Randomization visits, as well as at Study visits at Weeks 2, 3, 4, 8 and 12.
# [2] = system: secreted IL6 protein of healthy PBMC; assay: IL6 ELISA of supernatant of cultured healthy PBMCs; assay type: cell-based, human; settings: 4-hour 1 mM NR in the presence of MitoDAMP
# Description: IL6 ELISA. Isolated PBMCs (4×10^6 cells per sample) from healthy or HF participants were resuspended in RPMI medium containing 10% heat-inactivated FBS and treated with various proinflammatory triggers (Vehicle, MitoDAMP, LPS) and compounds (NR, MCC 950, MitoTempo, or LMT-28) to final PBMC concentrations of 10×10^6 cells per mL. See below for detailed descriptions of the reagents. The samples were incubated in Eppendorf tubes at 37° C. in a 5% CO2 incubator with caps open for times designated in the brief description of drawings. The cultured PBMC samples were centrifuged at 8,000 RPM at room temperature. The supernatant was used for ELISA per the manufacture protocol using R&D Systems human IL6 kit (Cat #DY206-05). The cell pellets were stored in −80° C.
# [3] = Randomized trial of NR in HFrEF: whole blood NR and NAD+ levels; assay type: in vivo, human
# Description: At Week 0 (Randomization), participants underwent history, repeat 6MWD assessment and baseline transthoracic echocardiogram (FIG. 15). NR or matching placebo were started at the initial dose of 250 mg orally twice daily, then up-titrated by 250 mg twice daily each week to a final dose of 1000 mg twice daily by Week 3. Participants were continued on the 1000 mg twice daily dose until the final clinic visit on Week 12. Blood draws for study labs, including levels of NR and NAD were obtained at Weeks 0, 2, 4 and 12. Medications were dispensed at Weeks 0, 2, 4 and 8, with pill counts performed at Weeks 2, 4, 8 and 12. A telephone visit was performed at Week 6. The final echocardiogram and PBMC mitochondrial respiration assays were performed at Week 12. Study labs were performed by the UW Research Testing Service, except for NR and NAD+ assays, which were performed by the Pharmacokinetics Laboratory, Department of Pharmaceutics, UW School of Pharmacy. Procedures for blood collection and processing, as well as NR and NAD+ assay procedures, have been described previously (Airhart S E, et al., PLoS One. 2017, 12:e0186459).
compound,measurement,setting,value
"NC(=O)c1ccc[n+]([C@@H]2O[C@H](CO)[C@@H](O)[C@H]2O)c1 [NR, nicotinamide riboside]","functional capacity, 6-minute walk test distance, NR vs placebo",[1],No on-trial differences between groups
same,"left ventricular diastolic function (E/e′), NR vs placebo",[1],No on-trial differences between groups
same,"left ventricular systolic function, 2D-LVEF, NR vs placebo",[1],No on-trial differences between groups
same,"quality of life, MLHFQ score, NR vs placebo",[1],No on-trial differences between groups
same,IL6 secretion,[2],reduction
same,"changes in whole blood NAD+ levels on-trial (Week 12-Week 0), Mean+SE",[3]; NR group,30 ± 20 µM
same,blood NAD+ levels during the up-titration period,"[3]; NR group, Week 0 to Week 4, maintained through Week 12",dose-dependent increase
same,whole blood NAD+ levels at 4 h post-dose vs pre-NR dose,"[3]; Week 4 visit, 1000 mg NR dose",unchanged
same,whole blood NR levels 4 h post-dose vs pre-dose,"[3]; Week 4 visit, 1000 mg NR dose",tended to increase; also recorded: rose significantly
same,whole blood NAD+ levels,"[3]; clinically-stable HF patients, NR treatment",doubled
same,concentration at 12 weeks,"[3]; human, whole blood, oral, 1000 mg twice daily, NR group, read-out: on-trial changes in whole blood NR levels (Week 12-Week 0), Mean±SE",2 nM
same,blood NR level before the daily dose was administered,"[3]; trough, throughout the study",low and variable
